The data set deals with CCRIS mutagenicity, Ames/micronucleus/aberration tests. Kind of data set: CCRIS mutagenicity studies.
Where [1] appears, read: Test System: AMES SALMONELLA TYPHIMURIUM, Strain/Indicator: TA98, Metabolic Activation: NONE, Method: PREINCUBATION
Where [2] appears, read: Test System: AMES SALMONELLA TYPHIMURIUM, Strain/Indicator: TA100, Metabolic Activation: NONE, Method: PREINCUBATION
Setting [3] is: Test System: AMES SALMONELLA TYPHIMURIUM, Strain/Indicator: TA98, Metabolic Activation: RAT, LIVER, S-9, PCB, Method: PREINCUBATION
[4] abbreviates: Test System: AMES SALMONELLA TYPHIMURIUM, Strain/Indicator: TA100, Metabolic Activation: RAT, LIVER, S-9, PCB, Method: PREINCUBATION
Setting [5] is: Test System: AMES SALMONELLA TYPHIMURIUM, Strain/Indicator: TA100, Metabolic Activation: RAT, LIVER, S-9, AROCLOR 1254, Method: STANDARD PLATE.
Where [6] appears, read: Test System: AMES SALMONELLA TYPHIMURIUM, Strain/Indicator: TA98, Metabolic Activation: NONE, Method: STANDARD PLATE.
The mark [7] stands for this setting: Test System: AMES SALMONELLA TYPHIMURIUM, Strain/Indicator: TA100, Metabolic Activation: NONE, Method: STANDARD PLATE.

The structures appear in SMILES notation. The source made the active and inactive calls. No rule for the calls is given here.

As for `O=C(Cl)c1cccc(Cl)c1`, the mutagenic call is, setting by setting: under setting [1], “inactive; negative”; (Test System: AMES SALMONELLA TYPHIMURIUM, Strain/Indicator: TA98, Metabolic Activation: RAT LIVER S-9, PCB, Method: PREINCUBATION) “active; positive”; under setting [2], “inactive; negative”; (Test System: AMES SALMONELLA TYPHIMURIUM, Strain/Indicator: TA100, Metabolic Activation: RAT LIVER S-9, PCB, Method: PREINCUBATION) “active; positive”; (Test System: AMES SALMONELLA TYPHIMURIUM, Strain/Indicator: TA104, Metabolic Activation: NONE, Method: PREINCUBATION) “inactive; negative”; (Test System: AMES SALMONELLA TYPHIMURIUM, Strain/Indicator: TA104, Metabolic Activation: RAT LIVER S-9, PCB, Method: PREINCUBATION) “active; positive”. Further, the mutagenic call reads like this: (Test System: E.COLI, Strain/Indicator: WP2 UVRA, Metabolic Activation: NONE, Method: PREINCUBATION) “inactive; negative”; (Test System: E.COLI, Strain/Indicator: WP2 UVRA, Metabolic Activation: RAT LIVER S-9, PCB, Method: PREINCUBATION) “active; positive”.
`CN(C)Cc1ccccc1`: the mutagenic call is “inactive; negative” under setting [1], “inactive; negative” under setting [3], “inactive; negative” under setting [2] and “inactive; negative” under setting [4].
Regarding `Cc1ccc2c(ccc3[nH]c4ccc5ccccc5c4c32)c1`, the mutagenic call under setting [5] is “active; positive”.
With `O=PO.O=PO.[Mn+2]`, the mutagenic call was “inactive; negative” under setting [6]; “inactive; negative” (Test System: AMES SALMONELLA TYPHIMURIUM, Strain/Indicator: TA98, Metabolic Activation: RAT, LIVER, S-9, AROCLOR 1254, Method: STANDARD PLATE); “inactive; negative” under setting [7]; “inactive; negative” under setting [5]; “inactive; negative” (Test System: AMES SALMONELLA TYPHIMURIUM, Strain/Indicator: TA1535, Metabolic Activation: NONE, Method: STANDARD PLATE); “inactive; negative” (Test System: AMES SALMONELLA TYPHIMURIUM, Strain/Indicator: TA1535, Metabolic Activation: RAT, LIVER, S-9, AROCLOR 1254, Method: STANDARD PLATE). In addition, the mutagenic call is, setting by setting: (Test System: AMES SALMONELLA TYPHIMURIUM, Strain/Indicator: TA1537, Metabolic Activation: NONE, Method: STANDARD PLATE) “inactive; negative”; (Test System: AMES SALMONELLA TYPHIMURIUM, Strain/Indicator: TA1537, Metabolic Activation: RAT, LIVER, S-9, AROCLOR 1254, Method: STANDARD PLATE) “inactive; negative”; (Test System: AMES SALMONELLA TYPHIMURIUM, Strain/Indicator: TA1538, Metabolic Activation: NONE, Method: STANDARD PLATE) “inactive; negative”; (Test System: AMES SALMONELLA TYPHIMURIUM, Strain/Indicator: TA1538, Metabolic Activation: RAT, LIVER, S-9, AROCLOR 1254, Method: STANDARD PLATE) “inactive; negative”; (Test System: E. COLI, Strain/Indicator: WP2, Metabolic Activation: NONE, Method: STANDARD PLATE) “inactive; negative”; (Test System: E. COLI, Strain/Indicator: WP2, Metabolic Activation: RAT, LIVER, S-9, AROCLOR 1254, Method: STANDARD PLATE) “inactive; negative”.
Take `CCC(C)[N+](=O)[O-]` (configuration not stated): the mutagenic call under setting [2] is “inactive; negative”; the mutagenic call (Test System: AMES SALMONELLA TYPHIMURIUM, Strain/Indicator: TA100, Metabolic Activation: RAT, LIVER, S-9, AROCLOR, Method: PREINCUBATION) was “inactive; negative”; the mutagenic call (Test System: AMES SALMONELLA TYPHIMURIUM, Strain/Indicator: TA102, Metabolic Activation: NONE, Method: PREINCUBATION) is “inactive; negative”; the mutagenic call (Test System: AMES SALMONELLA TYPHIMURIUM, Strain/Indicator: TA102, Metabolic Activation: RAT, LIVER, S-9, AROCLOR, Method: PREINCUBATION) was “inactive; negative”; the mutagenic call (Test System: E. COLI, Strain/Indicator: WP2 UVRA (PKM101), Metabolic Activation: NONE, Method: PREINCUBATION) is “active; positive”; the mutagenic call (Test System: E. COLI, Strain/Indicator: WP2 UVRA (PKM101), Metabolic Activation: RAT, LIVER, S-9, KANECHLOR 1254, Method: PREINCUBATION) was “active; positive”. The mutagenic call (Test System: UDS RAT HEPATOCYTES, Strain/Indicator: THY INCORP, Metabolic Activation: NONE) is “active; positive”.
On to `ClCc1c2ccccc2cc2ccccc12`, for which the mutagenic call runs as follows: under setting [1], “active; positive”; under setting [3], “active; positive”; under setting [2], “active; positive”; under setting [4], “active; positive”.
With `CCCCN(CCCCO)N=O`, the mutagenic call is, setting by setting: (Test System: AMES SALMONELLA TYPHIMURIUM, Strain/Indicator: TA1535, Metabolic Activation: NONE, Method: PREINCUBATION) “inactive; negative”; (Test System: AMES SALMONELLA TYPHIMURIUM, Strain/Indicator: TA1535, Metabolic Activation: RAT, LIVER, HEPATOCYTES, Method: PREINCUBATION) “inactive; negative”; (Test System: AMES SALMONELLA TYPHIMURIUM, Strain/Indicator: TA1535, Metabolic Activation: RAT, LIVER, S-9, AROCLOR, Method: PREINCUBATION) “active; positive”; (Test System: AMES SALMONELLA TYPHIMURIUM, Strain/Indicator: TA1535, Metabolic Activation: RAT, LIVER, S-9, KC500 OR PHENOBARBITAL, Method: LIQUID SUSPENSION) “active; positive”; (Test System: AMES SALMONELLA TYPHIMURIUM, Strain/Indicator: TA1535, Metabolic Activation: RAT, LIVER, S-9, SODIUM PHENOBARBITONE, Method: PREINCUBATION) “active; positive”; (Test System: AMES SALMONELLA TYPHIMURIUM, Strain/Indicator: TA1535, Metabolic Activation: RAT, LIVER, S-9, Method: PREINCUBATION) “inactive; negative”.
With `Fc1ccc(Br)cc1`, the mutagenic call runs as follows: (Test System: Mouse lymphoma, Strain/Indicator: L5178Y (tk+/tk-), Metabolic Activation: None, Method: Suspension/plate) “inconclusive”; (Test System: Mouse lymphoma, Strain/Indicator: L5178Y (tk+/tk-), Metabolic Activation: Rat, Liver, S-9, Aroclor 1254, Method: Suspension/plate) “inconclusive”.
With `C[N+]1(CCNP(=S)(NCC[N+]2(C)Cc3c(ccc4c3OCO4)[C@@H]3[C@H]2c2cc4c(cc2C[C@@H]3O)OCO4)NCC[N+]2(C)Cc3c(ccc4c3OCO4)[C@@H]3[C@H]2c2cc4c(cc2C[C@@H]3O)OCO4)Cc2c(ccc3c2OCO3)[C@@H]2[C@H]1c1cc3c(cc1C[C@@H]2O)OCO3` (some centres not stated), the mutagenic call by setting is: under setting [7], “inactive; negative”; under setting [5], “inactive; negative”.
In the case of `O=c1c2c(O)cccc2oc2c3c(cc(O)c12)O[C@H]1OCC[C@@H]31`, the mutagenic call by setting is: (Test System: AMES SALMONELLA TYPHIMURIUM, Strain/Indicator: TA98, Metabolic Activation: RAT, LIVER, S-9, PHENOBARBITAL, Method: STANDARD PLATE) “inactive; negative”; (Test System: AMES SALMONELLA TYPHIMURIUM, Strain/Indicator: TA100, Metabolic Activation: RAT, LIVER, S-9, PHENOBARBITAL, Method: STANDARD PLATE) “inactive; negative”.
On to `O=C(CBr)c1oc([N+](=O)[O-])c(Cl)c1Cl`, for which the mutagenic call is, setting by setting: under setting [6], “active; positive”; (Test System: AMES SALMONELLA TYPHIMURIUM, Strain/Indicator: TA100 (NR), Metabolic Activation: NONE, Method: STANDARD PLATE) “active; positive”; under setting [7], “active; positive”; (Test System: AMES SALMONELLA TYPHIMURIUM, Strain/Indicator: TA100, Metabolic Activation: NONE, Method: STANDARD PLATE (ANAEROBIC INCUBATION)) “active; positive”.
With `N#C/C(=C/C=C/c1ccccc1)c1ccccc1Cl`, the mutagenic call under setting [7] is “active; positive”.
In the case of `CC(=O)Nc1ccc2ccc3ccc(O)c4ccc1c2c34`, the mutagenic call is “inactive; negative” (Test System: AMES SALMONELLA TYPHIMURIUM, Strain/Indicator: TA98(1,8-DNP6), Metabolic Activation: NONE, Method: STANDARD PLATE); “inactive; negative” (Test System: AMES SALMONELLA TYPHIMURIUM, Strain/Indicator: TA98(1,8-DNP6), Metabolic Activation: RAT, LIVER, S-9, AROCLOR 1254, Method: STANDARD PLATE); “inactive; negative” (Test System: AMES SALMONELLA TYPHIMURIUM, Strain/Indicator: YG1024, Metabolic Activation: NONE, Method: STANDARD PLATE); “inactive; negative” (Test System: AMES SALMONELLA TYPHIMURIUM, Strain/Indicator: YG1024, Metabolic Activation: RAT, LIVER, S-9, AROCLOR 1254, Method: STANDARD PLATE).
